{"source": "EPA's ToxValDB 9.5", "key": {"Canidae [1]": {"tested_on": "Canidae", "settings": "for LOAEL / NOAEL: oral"}, "Rattus norvegicus [2]": {"tested_on": "Rattus norvegicus"}, "Mus musculus": {"tested_on": "Mus musculus", "settings": "for LD50: acute"}, "Rattus norvegicus [3]": {"tested_on": "Rattus norvegicus", "settings": "subchronic; duration: 42 days; oral; gavage; CD(SD)"}, "Canidae [4]": {"tested_on": "Canidae", "settings": "duration: 9 months, oral, capsule, M/F, Beagle, Decreased bodyweights, mortality, prostatic malfunction, foci of softening in the brainstem, & testicular atrophy"}, "Rattus norvegicus [5]": {"tested_on": "Rattus norvegicus", "settings": "chronic; duration: 6 months; oral; diet; M; increased liver-to-body weight and liver-to-brain weight ratios"}, "Rattus norvegicus [6]": {"tested_on": "Rattus norvegicus", "settings": "chronic; duration: 26 weeks; oral; diet; Liver: Altered weight"}, "Rattus norvegicus [7]": {"tested_on": "Rattus norvegicus", "settings": "developmental, oral, M"}, "[8]": {"settings": "subchronic, duration: 90 days, diet, Beagle"}, "[9]": {"settings": "subchronic, duration: 90 days, oral, diet"}}}
{"smiles": "C=CC[N+](C)(C)CC=C.[Cl-]", "note": "[Diallyldimethylammonium chloride]", "values": [{"measurement": "LOAEL", "setting": "Canidae [1]; [8]", "result": 800, "unit": "mg/kg-day"}, {"measurement": "NOAEL", "setting": "Canidae [1]; [8]", "result": 200, "unit": "mg/kg-day"}, {"measurement": "LD50", "setting": "Rattus norvegicus [2]; acute, oral, gavage, Sprague-Dawley", "result": 2520, "unit": "mg/kg"}, {"measurement": "LD50", "setting": "Rattus norvegicus [2]; acute, oral, gavage, Wistar", "result": 3930, "unit": "mg/kg"}, {"measurement": "NOAEL", "setting": "Rattus norvegicus [2]; developmental, duration: 9 days, oral, gavage, Sprague-Dawley", "result": 6, "unit": "mg/kg-day"}, {"measurement": "NOAEL", "setting": "Rattus norvegicus [2]; reproduction developmental, duration: 9 days, oral, gavage, F, Sprague-Dawley", "result": 6, "unit": "mg/kg-day"}, {"measurement": "NOAEL", "setting": "Rattus norvegicus [2]; reproduction developmental, duration: 133 days, oral, gavage, Sprague-Dawley, generation: F0", "result": 1.25, "unit": "mg/kg-day"}, {"measurement": "NOAEL", "setting": "Rattus norvegicus [2]; reproduction developmental, duration: 133 days, oral, gavage, Sprague-Dawley, generation: F1", "result": 1.25, "unit": "mg/kg-day"}, {"measurement": "NOAEL", "setting": "Rattus norvegicus [2]; reproduction developmental, duration: 133 days, oral, gavage, Sprague-Dawley, generation: F2", "result": 1.25, "unit": "mg/kg-day"}, {"measurement": "LOAEL", "setting": "Rattus norvegicus [2]; [9]", "result": 500, "unit": "mg/kg-day"}, {"measurement": "NOAEL", "setting": "Rattus norvegicus [2]; [9]", "result": 50, "unit": "mg/kg-day"}]}
{"smiles": "CCCCCCCCCCCCCCCCCC(=O)OC[C@@H](O)[C@H]1OC[C@H](O)[C@H]1O", "note": "[Anhydrosorbitol stearate]", "values": [{"measurement": "NOAEL (% diet)", "setting": "Canidae [1]; chronic, duration: 20 months, dermal, Dog Other", "result": 5}, {"measurement": "LOAEL", "setting": "Canidae [1]; chronic, duration: 21 months, diet, Mongrel or Irish terrier", "result": 485, "unit": "mg/kg-day"}, {"measurement": "NOAEL (% diet)", "setting": "Mus musculus; chronic, duration: 80 weeks, dermal, (TO)", "result": 0.5}, {"measurement": "LD50", "setting": "Rattus norvegicus [2]; acute, oral, gavage, Wistar", "result": "> 15900", "unit": "mg/kg"}, {"measurement": "NOAEL (% diet)", "setting": "Rattus norvegicus [2]; reproduction developmental, duration: 2 years, oral, diet", "result": 5}, {"measurement": "NOEL", "setting": "Rattus norvegicus [3]", "result": 1000, "unit": "mg/kg-day"}]}
{"smiles": "CC(=O)NCC(=O)O.CC(=O)NCC(=O)O.N=C(N)c1ccc(N=NNc2ccc(C(=N)N)cc2)cc1", "note": "[Diminazene diaceturate]", "values": [{"measurement": "LOEL", "setting": "Canidae [4]; chronic", "result": 60, "unit": "mg/kg-day"}, {"measurement": "LOEL", "setting": "Canidae [4]", "result": 60, "unit": "mg/kg-day"}]}
{"smiles": "CCCCOC(=O)c1ccccc1C(=O)OCc1ccccc1", "note": "[Benzyl butyl phthalate]", "values": [{"measurement": "NOAEL", "setting": "Canidae [1]; subchronic, duration: 90 days, Beagle", "result": 500, "unit": "mg/kg-day"}, {"measurement": "LD50", "setting": "Mus musculus; injection, Intraperitoneal, Swiss-Webster", "result": 3160, "unit": "mg/kg"}, {"measurement": "LD50", "setting": "Mus musculus; oral", "result": 4170, "unit": "mg/kg"}, {"measurement": "NOAEL", "setting": "Mus musculus; short-term, duration: 14 days, oral, diet, B6C3F1", "result": "> 5250", "unit": "mg/kg-day"}, {"measurement": "LD50", "setting": "Oryctolagus sp.; acute, dermal", "result": "> 10000", "unit": "mg/kg"}, {"measurement": "NOAEL", "setting": "Oryctolagus sp.; reproduction developmental, duration: 12 days, oral, F, New Zealand", "result": 10, "unit": "mg/kg-day"}, {"measurement": "LC50", "setting": "Rattus norvegicus [2]; acute, inhalation", "result": "> 6.7", "unit": "µg/mL"}, {"measurement": "LD50", "setting": "Rattus norvegicus [2]; acute, injection, Intraperitoneal", "result": 2660, "unit": "mg/kg"}, {"measurement": "NOAEL", "setting": "Rattus norvegicus [2]; chronic, duration: 182 days, oral, diet, Fischer 344", "result": 470, "unit": "mg/kg-day"}, {"measurement": "LOAEL", "setting": "Rattus norvegicus [2]; chronic, duration: 365 days, oral, diet, F, Fischer 344", "result": 360, "unit": "mg/kg-day"}, {"measurement": "NOAEL", "setting": "Rattus norvegicus [2]; reproduction developmental, duration: 26 weeks, oral, diet, Fischer 344, generation: F0", "result": 498, "unit": "mg/kg-day"}, {"measurement": "NOAEL", "setting": "Rattus norvegicus [2]; reproduction developmental, duration: 26 weeks, oral, diet, Fischer 344, generation: F1", "result": 168, "unit": "mg/kg-day"}, {"measurement": "NOAEL", "setting": "Rattus norvegicus [2]; reproduction developmental, duration: 26 weeks, oral, diet, M, Fischer 344", "result": 168, "unit": "mg/kg-day"}, {"measurement": "NOAEL", "setting": "Rattus norvegicus [2]; reproduction developmental, duration: 8 days, oral, gavage, F, Wistar", "result": 500, "unit": "mg/kg-day"}, {"measurement": "NOAEL", "setting": "Rattus norvegicus [2]; reproduction developmental, duration: 8 days, oral, gavage, Wistar, generation: F1", "result": 500, "unit": "mg/kg-day"}, {"measurement": "NOAEL", "setting": "Rattus norvegicus [2]; reproduction developmental, duration: 10 days, oral, diet, F, Sprague-Dawley", "result": 420, "unit": "mg/kg-day"}, {"measurement": "NOAEL", "setting": "Rattus norvegicus [2]; reproduction developmental, duration: 10 days, oral, diet, Sprague-Dawley, generation: F1", "result": 1100, "unit": "mg/kg-day"}, {"measurement": "NOAEL", "setting": "Rattus norvegicus [2]; reproduction developmental, duration: 14 days, oral, diet, Fischer 344, generation: F0", "result": 750, "unit": "mg/kg-day"}, {"measurement": "NOAEL", "setting": "Rattus norvegicus [2]; reproduction developmental, duration: 20 days, oral, diet, Wistar, generation: F1", "result": "> 1020", "unit": "mg/kg-day"}, {"measurement": "NOAEL", "setting": "Rattus norvegicus [2]; reproduction developmental, duration: 21 days, oral, diet, Fischer 344, generation: F0", "result": "≤ 679", "unit": "mg/kg-day"}, {"measurement": "NOAEL", "setting": "Rattus norvegicus [2]; reproduction developmental, oral, diet, F, Wistar", "result": "< 631", "unit": "mg/kg-day"}, {"measurement": "NOAEL", "setting": "Rattus norvegicus [2]; reproduction developmental, oral, diet, Wistar, generation: F0", "result": 206, "unit": "mg/kg-day"}, {"measurement": "NOAEL", "setting": "Rattus norvegicus [2]; short-term, duration: 14 days, oral, gavage, Sprague-Dawley", "result": 160, "unit": "mg/kg-day"}, {"measurement": "NOAEL", "setting": "Rattus norvegicus [2]; short-term, duration: 14 days, oral, gavage, Wistar", "result": 480, "unit": "mg/kg-day"}, {"measurement": "LOAEL", "setting": "Rattus norvegicus [2]; short-term, duration: 21 days, oral, diet, Fischer 344", "result": 639, "unit": "mg/kg-day"}, {"measurement": "LOAEL", "setting": "Rattus norvegicus [2]; short-term, duration: 28 days, oral, diet, Fischer 344", "result": 540, "unit": "mg/kg-day"}, {"measurement": "NOAEL", "setting": "Rattus norvegicus [2]; short-term, duration: 28 days, oral, diet, Sprague-Dawley", "result": 1000, "unit": "mg/kg-day"}, {"measurement": "NOAEL", "setting": "Rattus norvegicus [2]; subchronic, duration: 42 days, oral, diet, Sprague-Dawley", "result": 500, "unit": "mg/kg-day"}, {"measurement": "NOAEL", "setting": "Rattus norvegicus [2]; subchronic, duration: 90 days, inhalation, Sprague-Dawley", "result": 0.218, "unit": "mg/L"}, {"measurement": "NOAEL", "setting": "Rattus norvegicus [2]; subchronic, duration: 90 days, oral, diet, Sprague-Dawley", "result": 375, "unit": "mg/kg-day"}, {"measurement": "NOAEL", "setting": "Rattus norvegicus [2]; subchronic, duration: 90 days, oral, diet, Wistar", "result": 151, "unit": "mg/kg-day"}, {"measurement": "LOAEL", "setting": "Rattus norvegicus [5]", "result": 470, "unit": "mg/kg-day"}, {"measurement": "NOAEL", "setting": "Rattus norvegicus [5]", "result": 159, "unit": "mg/kg-day"}, {"measurement": "NOAEL", "setting": "Rattus norvegicus [6]", "result": 159, "unit": "mg/kg-day"}, {"measurement": "NOEL", "setting": "Rattus norvegicus [7]; Albino, generation: F1, F1: AGD (units not specified)", "result": 100, "unit": "mg/kg-day"}, {"measurement": "LOEL", "setting": "Rattus norvegicus [7]; drinking water, Wistar Alpk, generation: F1, F1: AGD (mm)", "result": 0.18, "unit": "mg/kg-day"}, {"measurement": "NOEL", "setting": "Rattus norvegicus [7]; gavage, Crj:CD, generation: F1, F1: AGD (mm) + F1: AGD (mm/cube root BW)", "result": 400, "unit": "mg/kg-day"}, {"measurement": "LOEL", "setting": "Rattus norvegicus [7]; gavage, Crj:CD, generation: F2, F2: AGD (mm)", "result": 100, "unit": "mg/kg-day"}]}
